The values below come from US20130344140A1, “NOVEL PHARMACEUTICAL COMBINATIONS AND METHODS FOR TREATING CANCER” (Agency for Science, Technology and Research, priority 2011, published 2013).

For series [1], the system named is ATM. The experiment in a line: ATM / DNA damage checkpoint dependence of VX-680-induced G2 arrest (western blot, DNA FACS profiles). The format is cell-based. How it is done: For western blotting, cell extracts were prepared using NP-40 lysis buffer (50 mM Tris-HCl (pH 8.0), 150 mM NaCl, 1% NP-40, 5 mM EDTA supplemented with protease and phosphatase inhibitor cocktails (Sigma).

Series [2] concerns HCT116 p53+/+ cells. The experiment in a line: Cell cycle analysis of HCT116 p53+/+ cells (nutlin-3, VX-680). The format is cell-based. The following applies: HCT116p53+/+. On the procedure:
(a) is a comparison of the DNA profiles of P53+/+ and p53−/− cells after treatment with VX-680. HCT116 p53+/+ and p53−/− cells were incubated with 200 nM VX-680 and cells were harvested at the indicated time points for analysis of cell cycle distribution.
(b) is a comparison of the DNA profiles of p53+/+ and p53−/− cells with pre-treatment of Nutlin before incubation with VX-680.

Series [3] relates to human keratinocytes. The following applies: for tetraploidy / endoreduplication after nutlin pretreatment: keratinocytes pretreated with nutlin-3 16 h, then VX-680 (200 nM) 48 h.
Experimental: Primary human keratinocytes were purchased from Invitrogen and cultured in defined keratinocyte serum-free media (Invitrogen). All cell lines were cultured in a CO2 incubator (5% CO2 and 21% O2) at 37° C.
For analysis of cell cycle distribution, cells were harvested and fixed in 70% ethanol/PBS solution. Cells were stained in propidium-iodide containing solution (25 μg/ml propidium iodide supplemented with 1 mg/ml RNase A, in PBS (pH 7.8); Sigma Chemical, St Louis, Mo., USA) for 15 min at room temperature.
Series [4] deals with A549 cells. The series can be described thus: Micronuclei formation and γH2AX staining (immunofluorescence microscopy) in A549 cells. The format is cell-based. The settings on record: A549; nutlin-3 only, or nutlin-3 16 h before VX-680 48 h. On the procedure:
Cells were fixed and stained for γH2AX (green) as described in Materials and Methods in the Examples. Nuclei were counterstained with DAPI blue. Visualization of nuclei and γH2AX positive foci was done by fluorescence microscopy.
Indirect immunofluorescence was carried out as described previously.^14 g-H2AX (Novus Biologicals, Littleton, Colo., USA, NB 100-383) and anti-rabbit Alexa 488-coupled secondary antibody (Molecular Probes, Carlsbad, Calif., USA) were used. Nuclei were counterstained with Hoechst 33342 (Molecular Probes). Immunofluorescence was visualized using Axiolmager Z1 (Zeiss, Gottingen, Germany).

The test system of series [5] is p53-deficient HCT116. The experiment in a line: Colony survival assay, p53-deficient HCT116. The format is cell-based. The settings on record: p53-deficient HCT116, nutlin-3 pretreatment before VX-680. On the procedure: (§1) Colonies were counted 2 weeks after recovery in drug-free media. Cells were fixed with glutaraldehyde and stained with crystal violet. Plates are scanned and colonies were counted with an automated image analyzer. Three independent experiments were performed for each cell line.
(§2) Each data point represents the mean±S.D.
(§3) A total of 1000 cells were plated on each 10 cm plate and allowed to adhere overnight. […] After 48 h, cells were washed and recovered in fresh media for 12 days. Cells were then fixed in 6% glutaraldehyde (Sigma) and stained with crystal violet. Colonies were counted using GelCount™ (Oxford Optronix, Oxford, England). Each condition was carried out in triplicate.

Series [6] has as its system HCT116p53+/+ cells. The experiment in a line: Colony survival assay, HCT116p53+/+. The format is cell-based. The settings on record: pretreated with nutlin-3, versus VX-680 alone. On the procedure:
as §1, §2, §3

For series [7], the system named is MDA-MB 468 and HCT116 p53−/−. The experiment in a line: Annexin V apoptosis assay, p53-compromised cell lines. The series is classed as cell-based. The following applies: p53-compromised cells pretreated with nutlin-3 before VX-680.
Experimental: Cells were then harvested and stained for annexin V to detect apoptotic cells.
For analysis of apoptosis, cells were harvested without fixation. Apoptosis was evaluated using the annexin V (fluorescein isothiocyanate (FITC))-propidium iodide binding assay (Roche, Indianapolis, Ind., USA). The extent of apoptosis was quantified as a percentage of annexin V-positive cells over the total cell population. Flow cytometric analysis was performed on a BD LSR II System (BD Biosciences, Stockholm, Sweden). Data were analyzed using FlowJo software and ModFit LT (Verity Software House, Topsham, Me., USA).
Series [8] relates to A549 cells. The experiment in a line: Cell cycle / BrdU analysis of A549 cells pretreated with nutlin-3 before VX-680. The format is cell-based. How it is done: Cells were treated with 200 nM VX-680 for 24 h and incubated with […] BrdU for 30 min. […] BrdU-positive cells in untreated control sample (upper left panel) and BrdU-positive cells that are […] DNA (endoreduplicating cells) (upper right panel) are highlighted in the boxes and the percentages over the total cell population are indicated.
(b) is a schematic diagram showing the timing and order of addition of drugs. At 48 h after VX-680 treatment, cells were washed in drug-free media and incubated in drug-free media for another 48, 96 or 120 h. Cell cycle distribution was analyzed by flow cytometry. Also shown are the DNA profiles obtained using the drug treatment protocol depicted in (a).
Cells were incubated in DMEM containing […] BrdU for 30 min in a 37° C./5% CO2 incubator. Detection of BrdU-labeled cells was performed using the In Situ Cell Proliferation Kit from Roche. In brief, cells were harvested and fixed using a 70% ethanol/50 mM Glycine (pH 2.0) on ice. Cells were pelleted and resuspended in the HCl-denaturation solution at room temperature for 20 min. Cells were then pelleted and 50 μl anti-BrdU-FLUOS antibody was added to the cells and incubated for 45 min at 37° C. in a humidified chamber. For staining of total DNA, 7-AAD was added to the cells, followed by incubation at room temperature for 10 min. Cells were analyzed immediately using flow cytometry (BD LSR II System).

The test system of series [9] is A549 cells. The experiment in a line: Colony survival assay, A549. The series is classed as cell-based. Also noted: enhancement of the fraction of surviving colonies: dose or concentration left out as unconfirmed. How it is done:
as §1, §2, §3

Series [10] concerns HCT116p53+/+ (green) and HCT116p53−/− (red) cells. The series can be described thus: Co-culture of HCT116p53+/+ GFP and HCT116p53−/− RFP cells. The series is classed as cell-based. The settings on record: mixed population pretreated with nutlin-3 then VX-680, 5 days after drugs removal. An excerpt: (e) is a schematic illustration of fluorescent microscopy images of HCT116 p53+/+ and p53−/− cells that were transduced with recombinant lentiviruses carrying GFP and RFP genes, respectively. The cells were selected in zeocin for 2 weeks to achieve the stable cell lines, HCT116 p53+/+GFP and HCT116 p53−/− RFP. Equal numbers of HCT116 p53+/+GFP and p53−/− RFP were mixed and seeded to achieve 30% growth confluency. […] Cells were then washed twice with drug-free media and allowed to recover for 5 days in fresh complete media. Microscopy images were taken with Deltavision (Axio). […] Insets 1 and 2 show higher magnification of the images on the left.
We further studied the responses of p53 wild-type and p53-deficient cells in co-culture system, in which both cell types were cultured together for the duration of the experiment. HCT116p53+/+ and the HCT116p53−/− cells were distinguished using green fluorescent protein (GFP) and red fluorescent protein (RFP) fluorescent markers. Equal numbers of HCT116p53+/+ (green) and HCT116p53−/− (red) cells were mixed and plated in 10 cm plates, before exposure to a similar drug dosage regimen as described in FIG. 6c.

“Also recorded” adds a separate entry of the source. Like-named read-outs stand apart in the source and are kept apart here.

For the compound `O=c1cc(-c2cccc3c2Sc2ccccc2S3)oc(N2CCOCC2)c1` [KU55933], the “γH2AX and ATM-S1981 phosphorylation in response to doxorubicin” value in series [1] (KU55933 with 1 μM doxorubicin) is reported as “abrogates the observed phosphorylation in a dose-dependent manner; also recorded: clearly reduced”. Also, in [1] (pre-treatment with KU55933 before VX-680), the “effect on VX-680-induced G2 arrest” value is on record as “does not abrogate”.
On to `COc1cccc2c1C(=O)c1c(O)c3c(c(O)c1C2=O)C[C@@](O)(C(=O)CO)C[C@@H]3O[C@H]1C[C@H](N)[C@H](O)[C@H](C)O1` [doxorubicin], for which the “phospho-S1981 ATM, phospho-H2AX, phospho-S15 p53” value in series [1] (1 μM doxorubicin) is reported as “accumulation”.
As for `COc1ccc(C2=N[C@@H](c3ccc(Cl)cc3)[C@@H](c3ccc(Cl)cc3)N2C(=O)N2CCNC(=O)C2)c(OC(C)C)c1` [nutlin-3], the “cell cycle arrest by nutlin” value in [2] is recorded as “induced an arrest”. Also, the “protection from VX-680-induced endoreduplication by nutlin pretreatment” value in [2] (nutlin-3 16 h then VX-680 (200 nM) and nutlin-3 48 h) is reported as “protects”. The cellular viability entry in [3] was “high cellular viability”. Further, the “tetraploidy / endoreduplication after nutlin pretreatment” value in [3] (listed as Nutlin) is reported as “did not show significant tetraploidy”; in series [3] (listed as Nutlin-3), “protects primary human keratinocytes from endoreduplication”. Further, in [4], the “frequency of micronuclei and γH2AX staining” value is “low frequency”. Besides, in series [5], the colony survival rate result is recorded as “did not affect”. The “better survival (colony formation)” value in series [6] was “up to 15 fold”. Further, the “degree of apoptosis with nutlin-3 pretreatment” value in series [7] is “no significant difference”. Further, the “cell cycle arrest of nutlin-3-pretreated cells” value in series [8] (A549, nutlin-3 (5 µM) before VX-680 treatment, 48 h VX-680, confirmed by BrdU assay) is “arrested cells even after 48 h of VX-680 exposure”; in series [8] (A549, nutlin-3 (5 μM) followed by VX-680 (200 nM)), “remained arrested at G1”. Besides, the “DNA profile after recovery in drug-free media” value in [8] (A549, nutlin-3 pretreatment then VX-680, recovered in drug-free media) is listed as “normal diploid DNA profile”. Moreover, the “enhancement of the fraction of surviving colonies” value in series [9] (A549, pretreated with for 16 h before VX-680 48 h, versus VX-680 alone) was “up to 20 fold”. Moreover, the “number of surviving colonies” value in [9] (nutlin alone) was “moderately decreases”. In series [10], the “number of HCT116p53+/+ (green) cells versus HCT116p53−/− (red) cells” value was “far more than”.
